Data: patent US9644083B2, “Cellulose acylate film, polarizing plate protective film, polarizing plate and liquid crystal display using the same” (FUJIFILM Corporation, priority 2014, dated 2017)

Assay: acid dissociation constant pKa by alkali titration method
Assay type: physicochemical
Conditions: 25° C., mixed solvent tetrahydrofuran 60 ml/water 40 ml; for pKa: pKa of conjugate acid, read-out: Chelating agent B pKa of basic group
Method: The cellulose acylate film of the present invention contains at least two chelating agents. One of the two chelating agents is a chelating agent having a […] pKa and, in the present invention, such is a chelating agent (chelating agent A) having at least one functional group whose acid dissociation constant pKa measured at 25° C. in a mixed solvent having a mixing ratio of tetrahydrofuran 60 ml/water 40 ml is 6 or less.
The acid dissociation constant pKa can be measured in accordance with an alkali titration method described in Experimental Chemistry Course, 2nd Ed., pp. 215-217, published by MARUZEN PUBLISHING CO., LTD.
At least one residual chelating agent of the at least two chelating agents which the cellulose acylate film of the present invention contains, is a chelating agent B having at least one functional group of a conjugate acid, whose pKa measured at 25° C. in a mixed solvent having a mixing ratio of tetrahydrofuran 60 ml/water 40 ml, is 7 or more.

pKa	Chelating agent A pKa of acidic group	SMILES
14	–	ONc1nc(NC2CCCCC2)nc(NC2CCCCC2)n1 [Chelating agent D]
–	6.0	CCCCCCCCCCCCCCCC(=O)OC[C@H](O)[C@H]1OC(=O)C(O)=C1O [L-ascorbic acid palmitic acid ester]
8.4	–	CC(O)CN(CCN(CC(C)O)CC(C)O)CCN(CC(C)O)CC(C)O (stereo not drawn) [N,N,N′,N″,N″-pentakis(2-hydroxypropyl)diethylenetriamine]
–	Less than 3	O=P(O)(O)CN(CCN(CP(=O)(O)O)CP(=O)(O)O)CP(=O)(O)O [PH-540, Ethylenediamine N,N,N′,N′-tetrakis(methylenephosphonic acid)]
–	3.6	O=C(O)CN(CCN(CC(=O)O)CC(=O)O)CCN(CC(=O)O)CC(=O)O [diethylenetriaminepentaacetic acid]
8.9	–	NCCNCCNCCN [triethylenetetramine]
